# Test results taken from PubChem BioAssay AID256 (DTP/NCI, 2004).
# Several values for one entry are separate records, joined by “and”; a condition that tells them apart may be missing. Equal values may be shown once. Inconclusive results and toxic doses are left out.
# Test system: CD2F1 mice, L1210 leukemia ip, survival T/C
# Experiment: NCI In Vivo Anticancer Drug Screen. Data for tumor model L1210 Leukemia (intraperitoneal) in CD2F1 (CDF1) mice
# Details: higher = longer survival
# Method in brief: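 In this screen, transplantable tumors were grown in mice given either the compound or its vehicle. Results were expressed as the treated measurement relative to the control measurement.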
# [1] = endpoint: mean survival time, dose: 1.0 mg/kg/injection, schedule: Q01DX009 (ip), vehicle: saline
# [2] = endpoint: mean survival time, dose: 100.0 mg/kg/injection, schedule: Q01DX009 (ip), vehicle: saline with Tween-80
smiles,measurement,setting,value
Nc1nc([Se])c2ncn(C3OC(CO)C(O)C3O)c2n1 (stereo not drawn),T/C,[1],123 % of control
same,T/C,"endpoint: mean survival time, dose: 2.0 mg/kg/injection, schedule: Q01DX009 (ip), vehicle: distilled water + Tween-80",114 % of control
same,T/C,"endpoint: mean survival time, dose: 2.0 mg/kg/injection, schedule: Q01DX009 (ip), vehicle: water",119 % of control
same,T/C,"endpoint: mean survival time, dose: 2.0 mg/kg/injection, schedule: Q04DX003 (ip), vehicle: DMSO",117 % of control
same,T/C,"endpoint: mean survival time, dose: 2.0 mg/kg/injection, schedule: Q04DX003 (ip), vehicle: clinical formulation",116 % of control and 109 % of control
same,T/C,"endpoint: mean survival time, dose: 2.0 mg/kg/injection, schedule: Q04DX003 (ip), vehicle: saline",115 % of control and 119 % of control
same,T/C,"endpoint: mean survival time, dose: 2.5 mg/kg/injection, schedule: Q01DX005 (iv), vehicle: water",95 % of control
same,T/C,"endpoint: mean survival time, dose: 4.0 mg/kg/injection, schedule: Q04DX003 (ip), vehicle: DMSO",113 % of control
same,T/C,"endpoint: mean survival time, dose: 4.0 mg/kg/injection, schedule: Q04DX003 (ip), vehicle: clinical formulation",113 % of control
same,T/C,"endpoint: mean survival time, dose: 5.0 mg/kg/injection, schedule: Q01DX005 (iv), vehicle: water",113 % of control
same,T/C,"endpoint: mean survival time, dose: 8.0 mg/kg/injection, schedule: Q04DX003 (ip), vehicle: clinical formulation",115 % of control
same,T/C,"endpoint: mean survival time, dose: 12.5 mg/kg/injection, schedule: Q01DX005 (ip), vehicle: saline",169 % of control
same,T/C,"endpoint: mean survival time, dose: 16.0 mg/kg/injection, schedule: Q01DX009 (ip), vehicle: distilled water + Tween-80",150 % of control
same,T/C,"endpoint: mean survival time, dose: 16.0 mg/kg/injection, schedule: Q01DX009 (ip), vehicle: water",119 % of control
same,T/C,"endpoint: mean survival time, dose: 25.0 mg/kg/injection, schedule: Q01DX005 (ip), vehicle: saline",191 % of control
same,T/C,"endpoint: mean survival time, dose: 32.0 mg/kg/injection, schedule: Q01DX009 (ip), vehicle: distilled water + Tween-80",156 % of control
same,T/C,"endpoint: mean survival time, dose: 32.0 mg/kg/injection, schedule: Q01DX009 (ip), vehicle: saline",116 % of control and 117 % of control
same,T/C,"endpoint: mean survival time, dose: 32.0 mg/kg/injection, schedule: Q01DX009 (ip), vehicle: water",92 % of control
same,T/C,"endpoint: mean survival time, dose: 40.0 mg/kg/injection, schedule: Q01DX005 (iv), vehicle: water",151 % of control
same,T/C,"endpoint: mean survival time, dose: 50.0 mg/kg/injection, schedule: Q01DX005 (ip), vehicle: saline",187 % of control
same,T/C,"endpoint: mean survival time, dose: 64.0 mg/kg/injection, schedule: Q01DX009 (ip), vehicle: saline",87 % of control
same,T/C,"endpoint: median survival time, dose: 1.0 mg/kg/injection, schedule: Q01DX009 (sc), vehicle: DMSO",100 % of control
same,T/C,"endpoint: median survival time, dose: 1.0 mg/kg/injection, schedule: Q03HX016 (ip), vehicle: DMSO",153 % of control
same,T/C,"endpoint: median survival time, dose: 1.0 mg/kg/injection, schedule: Q03HX024 (ip), vehicle: DMSO",150 % of control
same,T/C,"endpoint: median survival time, dose: 2.0 mg/kg/injection, schedule: Q01DX009 (ip), vehicle: DMSO",172 % of control
same,T/C,"endpoint: median survival time, dose: 2.0 mg/kg/injection, schedule: Q01DX009 (sc), vehicle: DMSO",111 % of control
same,T/C,"endpoint: median survival time, dose: 2.0 mg/kg/injection, schedule: Q03HX008 (ip), vehicle: DMSO",171 % of control
same,T/C,"endpoint: median survival time, dose: 2.0 mg/kg/injection, schedule: Q03HX016 (ip), vehicle: DMSO",162 % of control
same,T/C,"endpoint: median survival time, dose: 2.0 mg/kg/injection, schedule: Q03HX024 (ip), vehicle: DMSO",178 % of control
same,T/C,"endpoint: median survival time, dose: 4.0 mg/kg/injection, schedule: Q01DX009 (ip), vehicle: DMSO",200 % of control
same,T/C,"endpoint: median survival time, dose: 4.0 mg/kg/injection, schedule: Q01DX009 (oral), vehicle: DMSO",107 % of control
same,T/C,"endpoint: median survival time, dose: 4.0 mg/kg/injection, schedule: Q03HX008 (ip), vehicle: DMSO",173 % of control
same,T/C,"endpoint: median survival time, dose: 4.0 mg/kg/injection, schedule: Q03HX016 (ip), vehicle: DMSO",185 % of control
same,T/C,"endpoint: median survival time, dose: 4.0 mg/kg/injection, schedule: Q03HX024 (ip), vehicle: DMSO",175 % of control
same,T/C,"endpoint: median survival time, dose: 4.0 mg/kg/injection, schedule: Q08DX002 (ip), vehicle: DMSO",123 % of control
same,T/C,"endpoint: median survival time, dose: 8.0 mg/kg/injection, schedule: Q01DX001 (sc), vehicle: DMSO",112 % of control
same,T/C,"endpoint: median survival time, dose: 8.0 mg/kg/injection, schedule: Q01DX009 (ip), vehicle: DMSO",175 % of control
same,T/C,"endpoint: median survival time, dose: 8.0 mg/kg/injection, schedule: Q01DX009 (oral), vehicle: DMSO",123 % of control
same,T/C,"endpoint: median survival time, dose: 8.0 mg/kg/injection, schedule: Q01DX009 (sc), vehicle: DMSO",166 % of control
same,T/C,"endpoint: median survival time, dose: 8.0 mg/kg/injection, schedule: Q03HX008 (ip), vehicle: DMSO",176 % of control
same,T/C,"endpoint: median survival time, dose: 8.0 mg/kg/injection, schedule: Q03HX016 (ip), vehicle: DMSO",176 % of control
same,T/C,"endpoint: median survival time, dose: 8.0 mg/kg/injection, schedule: Q03HX024 (ip), vehicle: DMSO",185 % of control
same,T/C,"endpoint: median survival time, dose: 8.0 mg/kg/injection, schedule: Q04DX003 (ip), vehicle: DMSO",166 % of control
same,T/C,"endpoint: median survival time, dose: 16.0 mg/kg/injection, schedule: Q01DX001 (oral), vehicle: DMSO",120 % of control
same,T/C,"endpoint: median survival time, dose: 16.0 mg/kg/injection, schedule: Q01DX001 (sc), vehicle: DMSO",121 % of control
same,T/C,"endpoint: median survival time, dose: 16.0 mg/kg/injection, schedule: Q01DX009 (ip), vehicle: DMSO",191 % of control
same,T/C,"endpoint: median survival time, dose: 16.0 mg/kg/injection, schedule: Q01DX009 (oral), vehicle: DMSO",158 % of control
same,T/C,"endpoint: median survival time, dose: 16.0 mg/kg/injection, schedule: Q01DX009 (sc), vehicle: DMSO",187 % of control
same,T/C,"endpoint: median survival time, dose: 16.0 mg/kg/injection, schedule: Q04DX003 (ip), vehicle: DMSO",178 % of control
same,T/C,"endpoint: median survival time, dose: 16.0 mg/kg/injection, schedule: Q08DX002 (ip), vehicle: DMSO",102 % of control
same,T/C,"endpoint: median survival time, dose: 32.0 mg/kg/injection, schedule: Q01DX001 (oral), vehicle: DMSO",117 % of control
same,T/C,"endpoint: median survival time, dose: 32.0 mg/kg/injection, schedule: Q01DX009 (ip), vehicle: DMSO",178 % of control
same,T/C,"endpoint: median survival time, dose: 32.0 mg/kg/injection, schedule: Q01DX009 (oral), vehicle: DMSO",167 % of control
same,T/C,"endpoint: median survival time, dose: 32.0 mg/kg/injection, schedule: Q01DX009 (sc), vehicle: DMSO",160 % of control
same,T/C,"endpoint: median survival time, dose: 32.0 mg/kg/injection, schedule: Q04DX003 (ip), vehicle: DMSO",183 % of control
same,T/C,"endpoint: median survival time, dose: 64.0 mg/kg/injection, schedule: Q01DX009 (ip), vehicle: DMSO",116 % of control
same,T/C,"endpoint: median survival time, dose: 64.0 mg/kg/injection, schedule: Q01DX009 (oral), vehicle: DMSO",160 % of control
same,T/C,"endpoint: median survival time, dose: 64.0 mg/kg/injection, schedule: Q01DX009 (sc), vehicle: DMSO",111 % of control
same,T/C,"endpoint: median survival time, dose: 64.0 mg/kg/injection, schedule: Q04DX003 (ip), vehicle: DMSO",191 % of control
same,T/C,"endpoint: median survival time, dose: 128.0 mg/kg/injection, schedule: Q01DX001 (ip), vehicle: DMSO",121 % of control
N#C/C(=C\C1CC(Br)CCC1O)C1CCC([N+](=O)[O-])CC1 (stereo not drawn),T/C,"endpoint: mean survival time, dose: 50.0 mg/kg/injection, schedule: Q01DX009 (ip), vehicle: saline with Tween-80",86 % of control
same,T/C,[2],88 % of control
Nc1ccn(C2OC(COC(=O)C34CC5CC(CC(C5)C3)C4)C(O)C2O)c(=O)n1 (stereo not drawn),T/C,"endpoint: mean survival time, dose: 12.5 mg/kg/injection, schedule: Q01DX009 (ip), vehicle: other",201 % of control
same,T/C,"endpoint: mean survival time, dose: 25.0 mg/kg/injection, schedule: Q01DX009 (ip), vehicle: other",282 % of control
same,T/C,"endpoint: mean survival time, dose: 50.0 mg/kg/injection, schedule: Q01DX009 (ip), vehicle: other",365 % of control
same,T/C,"endpoint: mean survival time, dose: 100.0 mg/kg/injection, schedule: Q01DX009 (ip), vehicle: other",253 % of control
Nc1ncn(C2CC(O)C(CO)O2)c(=O)n1 (stereo not drawn),T/C,"endpoint: mean survival time, dose: 0.12 mg/kg/injection, schedule: Q01DX009 (ip), vehicle: saline",160 % of control and 175 % of control
same,T/C,"endpoint: mean survival time, dose: 0.25 mg/kg/injection, schedule: Q01DX009 (ip), vehicle: Klucel (hydroxypropylcellulose) (HPC)",195 % of control
same,T/C,"endpoint: mean survival time, dose: 0.25 mg/kg/injection, schedule: Q01DX009 (ip), vehicle: saline",193 % of control and 221 % of control
same,T/C,"endpoint: mean survival time, dose: 0.5 mg/kg/injection, schedule: Q01DX009 (ip), vehicle: Klucel (hydroxypropylcellulose) (HPC)",219 % of control
same,T/C,"endpoint: mean survival time, dose: 0.5 mg/kg/injection, schedule: Q01DX009 (ip), vehicle: saline",229 % of control and 258 % of control
same,T/C,"endpoint: mean survival time, dose: 1.0 mg/kg/injection, schedule: Q01DX009 (ip), vehicle: Klucel (hydroxypropylcellulose) (HPC)",227 % of control
same,T/C,[1],258 % of control and 296 % of control
same,T/C,"endpoint: mean survival time, dose: 4.0 mg/kg/injection, schedule: Q01DX009 (ip), vehicle: Klucel (hydroxypropylcellulose) (HPC)",113 % of control
same,T/C,"endpoint: mean survival time, dose: 4.0 mg/kg/injection, schedule: Q01DX009 (ip), vehicle: saline",121 % of control
same,T/C,"endpoint: mean survival time, dose: 8.0 mg/kg/injection, schedule: Q01DX009 (ip), vehicle: Klucel (hydroxypropylcellulose) (HPC)",98 % of control
same,T/C,"endpoint: median survival time, dose: 0.25 mg/kg/injection, schedule: Q01DX009 (ip), vehicle: saline",211 % of control
same,T/C,"endpoint: median survival time, dose: 0.5 mg/kg/injection, schedule: Q01DX009 (ip), vehicle: saline",247 % of control
same,T/C,"endpoint: median survival time, dose: 1.0 mg/kg/injection, schedule: Q01DX009 (ip), vehicle: saline",297 % of control
same,T/C,"endpoint: median survival time, dose: 8.0 mg/kg/injection, schedule: Q01DX009 (ip), vehicle: saline",117 % of control
N#CC(/C=C/c1ccccc1)Nc1ccccc1N (stereo not drawn),T/C,[2],98 % of control
same,T/C,"endpoint: mean survival time, dose: 200.0 mg/kg/injection, schedule: Q01DX009 (ip), vehicle: saline with Tween-80",95 % of control
same,T/C,"endpoint: mean survival time, dose: 400.0 mg/kg/injection, schedule: Q01DX009 (ip), vehicle: saline with Tween-80",93 % of control
